According to ChEMBL document CHEMBL3885881, “DrugMatrix”:

Species on record: Rattus norvegicus
Assay: DrugMatrix - Regimen: Daily Repeat
Format: toxicity, organism-based, Sprague-Dawley
Parameters: regimen Daily Repeat, gender Male, age 6-8 weeks
Details: in vivo, po, […], route oral GAVAGE; for ABSOLUTE BASOPHIL / ABSOLUTE EOSINOPHIL / ABSOLUTE LYMPHOCYTE / ABSOLUTE MONOCYTE / ABSOLUTE SEGMENTED NEUTROPHIL / BASOPHIL / EOSINOPHIL / ERYTHROCYTE COUNT / HEMATOCRIT / HEMOGLOBIN / LEUKOCYTE COUNT / LYMPHOCYTE / MEAN CORPUSCULAR HEMOGLOBIN / MEAN CORPUSCULAR HEMOGLOBIN CONCENTRATION / MEAN CORPUSCULAR VOLUME / MONOCYTE / NEUTROPHIL / NUCLEATED RED BLOOD CELLS / PLATELET COUNT: tissue Blood; for ALANINE AMINOTRANSFERASE / ALBUMIN / ALKALINE PHOSPHATASE / ASPARTATE AMINOTRANSFERASE / BLOOD UREA NITROGEN / CARBON DIOXIDE / CHLORIDE / CHOLESTEROL / CREATINE PHOSPHOKINASE / CREATININE / GLUCOSE / LACTATE DEHYDROGENASE / LIPASE / PHOSPHORUS / POTASSIUM / SODIUM / TOTAL BILIRUBIN / TOTAL PROTEIN / URIC ACID: tissue Plasma
[1] = 130 mg/kg, dose level Low, time 7 day
[2] = 500 mg/kg, 72 h, dose level High, time 3 day
[3] = 500 mg/kg, dose level High, time 7 day

CCOC(=O)C(C)(C)Oc1ccc(Cl)cc1 [CLOFIBRATE]
ABSOLUTE BASOPHIL [1]: 0 CELLS/uL
ABSOLUTE EOSINOPHIL [1]: 21.17 CELLS/uL
ABSOLUTE LYMPHOCYTE [1]: 6867.67 CELLS/uL
ABSOLUTE MONOCYTE [1]: 104.17 CELLS/uL
ABSOLUTE SEGMENTED NEUTROPHIL [1]: 707 CELLS/uL
BASOPHIL [1]: 0%
EOSINOPHIL [1]: 0.17%
ERYTHROCYTE COUNT [1]: 5.45 x10E6/uL
HEMATOCRIT [1]: 34%
HEMOGLOBIN [1]: 13.12 G/DL
LEUKOCYTE COUNT [1]: 7.7 x10E3/uL
LYMPHOCYTE [1]: 90.17%
MEAN CORPUSCULAR HEMOGLOBIN [1]: 24.08 pg
MEAN CORPUSCULAR HEMOGLOBIN CONCENTRATION [1]: 38.57 G/DL
MEAN CORPUSCULAR VOLUME [1]: 62.45 fL
MONOCYTE [1]: 1.17%
NEUTROPHIL [1]: 8.5%
NUCLEATED RED BLOOD CELLS [1]: 0 /100WBC
PLATELET COUNT [1]: 1220 x10E3/uL
ALANINE AMINOTRANSFERASE [1]: 65.83 u/L
ALBUMIN [1]: 4.38 G/DL
ALKALINE PHOSPHATASE [1]: 251.5 u/L
ASPARTATE AMINOTRANSFERASE [1]: 76.33 u/L
BLOOD UREA NITROGEN [1]: 14.33 mg/dL
CARBON DIOXIDE [1]: 30.5 mmol/L
CHLORIDE [1]: 104.5 MEQ/L
CHOLESTEROL [1]: 60.5 mg/dL
CREATINE PHOSPHOKINASE [1]: 323.5 u/L
CREATININE [1]: 0.21 mg/dL
GLUCOSE [1]: 149.17 mg/dL
LACTATE DEHYDROGENASE [1]: 102.17 u/L
LIPASE [1]: 9.67 u/L
PHOSPHORUS [1]: 10.73 mg/dL
POTASSIUM [1]: 5.56 MEQ/L
SODIUM [1]: 146.55 MEQ/L
TOTAL BILIRUBIN [1]: 0.1 mg/dL
TOTAL PROTEIN [1]: 6.07 G/DL
URIC ACID [1]: 0.98 mg/dL
ABSOLUTE BASOPHIL [2]: 0 CELLS/uL
ABSOLUTE EOSINOPHIL [2]: 0 CELLS/uL
ABSOLUTE LYMPHOCYTE [2]: 11363.33 CELLS/uL
ABSOLUTE MONOCYTE [2]: 222.5 CELLS/uL
ABSOLUTE SEGMENTED NEUTROPHIL [2]: 1180.83 CELLS/uL
BASOPHIL [2]: 0%
EOSINOPHIL [2]: 0%
ERYTHROCYTE COUNT [2]: 5.54 x10E6/uL
HEMATOCRIT [2]: 33.68%
HEMOGLOBIN [2]: 13.67 G/DL
LEUKOCYTE COUNT [2]: 12.77 x10E3/uL
LYMPHOCYTE [2]: 89%
MEAN CORPUSCULAR HEMOGLOBIN [2]: 24.72 pg
MEAN CORPUSCULAR HEMOGLOBIN CONCENTRATION [2]: 40.7 G/DL
MEAN CORPUSCULAR VOLUME [2]: 60.78 fL
MONOCYTE [2]: 1.67%
NEUTROPHIL [2]: 9.33%
NUCLEATED RED BLOOD CELLS [2]: 0 /100WBC
PLATELET COUNT [2]: 1039.67 x10E3/uL
ALANINE AMINOTRANSFERASE [2]: 88.83 u/L
ALBUMIN [2]: 4.27 G/DL
ALKALINE PHOSPHATASE [2]: 424.33 u/L
ASPARTATE AMINOTRANSFERASE [2]: 162 u/L
BLOOD UREA NITROGEN [2]: 18 mg/dL
CARBON DIOXIDE [2]: 26.83 mmol/L
CHLORIDE [2]: 103.5 MEQ/L
CHOLESTEROL [2]: 32.5 mg/dL
CREATINE PHOSPHOKINASE [2]: 350.5 u/L
CREATININE [2]: 0.19 mg/dL
GLUCOSE [2]: 152.17 mg/dL
LACTATE DEHYDROGENASE [2]: 380 u/L
LIPASE [2]: 9.17 u/L
PHOSPHORUS [2]: 9.13 mg/dL
POTASSIUM [2]: 6.05 MEQ/L
SODIUM [2]: 141.43 MEQ/L
TOTAL BILIRUBIN [2]: 0.2 mg/dL
TOTAL PROTEIN [2]: 5.38 G/DL
URIC ACID [2]: 1.42 mg/dL
ABSOLUTE BASOPHIL [3]: 0 CELLS/uL
ABSOLUTE EOSINOPHIL [3]: 10.67 CELLS/uL
ABSOLUTE LYMPHOCYTE [3]: 6850.83 CELLS/uL
ABSOLUTE MONOCYTE [3]: 72 CELLS/uL
ABSOLUTE SEGMENTED NEUTROPHIL [3]: 433.17 CELLS/uL
BASOPHIL [3]: 0%
EOSINOPHIL [3]: 0.17%
ERYTHROCYTE COUNT [3]: 5.25 x10E6/uL
HEMATOCRIT [3]: 32.12%
HEMOGLOBIN [3]: 12.58 G/DL
LEUKOCYTE COUNT [3]: 7.37 x10E3/uL
LYMPHOCYTE [3]: 92.67%
MEAN CORPUSCULAR HEMOGLOBIN [3]: 23.97 pg
MEAN CORPUSCULAR HEMOGLOBIN CONCENTRATION [3]: 39.23 G/DL
MEAN CORPUSCULAR VOLUME [3]: 61.12 fL
MONOCYTE [3]: 1%
NEUTROPHIL [3]: 6.17%
NUCLEATED RED BLOOD CELLS [3]: 0 /100WBC
PLATELET COUNT [3]: 961.33 x10E3/uL
ALANINE AMINOTRANSFERASE [3]: 91 u/L
ALBUMIN [3]: 4.27 G/DL
ALKALINE PHOSPHATASE [3]: 368.83 u/L
ASPARTATE AMINOTRANSFERASE [3]: 131.17 u/L
BLOOD UREA NITROGEN [3]: 15.67 mg/dL
CARBON DIOXIDE [3]: 32 mmol/L
CHLORIDE [3]: 102 MEQ/L
CHOLESTEROL [3]: 52.67 mg/dL
CREATINE PHOSPHOKINASE [3]: 300.5 u/L
CREATININE [3]: 0.21 mg/dL
GLUCOSE [3]: 154.17 mg/dL
LACTATE DEHYDROGENASE [3]: 169.67 u/L
LIPASE [3]: 10.17 u/L
PHOSPHORUS [3]: 10.03 mg/dL
POTASSIUM [3]: 5.38 MEQ/L
SODIUM [3]: 143.68 MEQ/L
TOTAL BILIRUBIN [3]: 0.1 mg/dL
TOTAL PROTEIN [3]: 5.75 G/DL
URIC ACID [3]: 0.85 mg/dL
